Measurements reported in EPA's ToxValDB 9.5 (doi:10.2903/j.efsa.2009.239r).
Converted amounts (≈) assume the structure as drawn.

Columns and labels:
Apis mellifera = conditions: acute; duration: 48 hours; dermal; mortality
Tagia sp. = conditions: acute; duration: 14 days; mortality
Lepomis macrochirus = conditions: acute; duration: 96 hours; mortality
Hypoaspis aculeifer = conditions: chronic/long-term, duration: 14 days
Bibionidae = conditions: chronic/long-term; duration: 28 days
Coturnix japonica = conditions: acute, oral, mortality
Anas platyrhynchos = conditions: oral, mortality
Chrysoperla externa = conditions: not reported; mortality
Canidae = conditions: oral, Dog Other, clinical signs
Daphnia magna = conditions: acute; duration: 48 hours; mortality

SMILES: CCOC(=O)CCN(SN(C)C(=O)Oc1cccc2c1OC(C)(C)C2)C(C)C [Benfuracarb]
- LD50 (Apis mellifera): 0.19 µg/piece
- LC50 (Tagia sp.): 58 mg/kg
- NOEC (Tagia sp.): < 10 mg/kg
- LC50 (Lepomis macrochirus): 0.017 µg/mL (≈ 0.0414 µM)
- LC50 (Colinus virginianus; acute, oral, diet, mortality): 179 mg/kg-day
- NOEL (Colinus virginianus; reproduction developmental): 8.93 mg/kg-day
- LEL (Hypoaspis aculeifer; mortality): 1000 g/ha
- LEL (Hypoaspis aculeifer; reproduction): 1000 g/ha
- NOEC (Bibionidae): 0.001 mg/L
- LD50 (Coturnix japonica; F): 39.9 mg/kg-day
- LD50 (Coturnix japonica; M): 48.3 mg/kg-day
- LD50 (Anas platyrhynchos; acute, unspecified): 19.8 mg/kg-day
- LC50 (Anas platyrhynchos; short-term, feed): 15 mg/kg-day
- LD50 (Rattus norvegicus; acute, oral, mortality): 205 mg/kg-day
- NOAEL (Rattus norvegicus; reproduction developmental, reproduction): 1.2 mg/kg-day
- NOAEL (Rattus norvegicus; short-term, duration: 28 days, clinical signs): 1.8 mg/kg-day
- LD50 (Chrysoperla externa): 5.2 g/ha
- NOAEL (Canidae; chronic, duration: 6 months): 1 mg/kg-day
- NOAEL (Canidae; chronic, duration: 24 months): 1 mg/kg-day
- NOAEL (Canidae; subchronic, duration: 13 weeks): 1 mg/kg-day
- LC50 (Daphnia magna): 0.0099 µg/mL (≈ 0.0241 µM)
